In test [1] the target is T1, b-Raf (Homo sapiens, UniProt P15056).
T1 construct: Full-length wild type b-Raf is expressed in recombinant form and purified from bacterial or insect cells; made in house; host or cells: bacterial or insect cells
Kind of test: Raf biochemical assay (in vitro kinase assay, 32-P transfer from ATP to Mek1). Particulars: full-length wild type b-Raf, Mek1 substrate; for inhibition at 1 µM: @ 1 μM compound, read-out: b-Raf % inhib @ 1 μM; for Ki: 25 μM ATP. The method, then: Compounds of the present invention were evaluated for potency against b-Raf using an in vitro kinase assay. Raf kinase activity is measured in vitro by determining transfer of radiolabeled 32-P phosphate from ATP to the specific Raf substrate Mek1. Full-length wild type b-Raf is expressed in recombinant form and purified from bacterial or insect cells. Recombinant Mek1 is purified from E. coli bacterial cells. In one assay format (designated G1), the full-length wild type Mek1 is used as the b-Raf substrate. In a second assay format (designated G2), the full-length K97R Mek1 mutant is used as the b-Raf substrate.
In vitro kinase assays are performed in solution containing the following; 50 mM Hepes (pH 7.4), 5 nM b-Raf, 0.8 μM Mek1, 10 mM MgCl2, 25 μM ATP, 0.002% (v/v) Tween-20, 5 μg/mL leupeptin, 1.2 mM DTT, 2% (v/v) DMSO, 0.2-1.0 μCi [γ-^32P]ATP per well.
The assays are performed in wells of a 96 well polypropylene round bottom plate, each well containing 43.5 μL assay mix and 1.5 μL inhibitor compound or DMSO vehicle. 15 μL of b-Raf mix is added and the plate is shaken on a plate shaker and preincubated for 10 minutes at ambient temperature. The reaction is started by addition of 15 μL ATP mix and shaking. The reaction is terminated after 40 minutes by addition of 25 μL 0.5 M EDTA (pH 7.4).
60 μL of the stopped reaction is transferred to a well of a 96-well nylon 66 Biodyne A membrane Silent Screen filter plate (Nalge/Nunc: 256081). The wells are filtered and washed five times with 0.85% phosphoric acid. The filter is placed in a tray with about 50 mL 0.85% phosphoric acid and gently rotated for 10 minutes on an orbital shaker. The procedure is repeated once with fresh 0.85% phosphoric acid. Five samples of 0.5 μL of ATP mix are also spotted onto filter paper for calculation of specific activity. The filters are air dried for one hour and sandwiched between cellophane wrap on an Amersham Biosciences Storage Phosphor Screen and developed at least over night. The image is read using a Molecular Dynamics Storm 840 phosphoimager. Volumes of spots are calculated using ImageQuant5.1.
Raf kinase activity is calculated from the specific activity of [32-P] ATP, 32-P incorporation into Mek1, and the concentration of b-Raf.

Test [2] concerns the target T2, b-Raf (Homo sapiens, UniProt P15056, V600E).
T2 construct: endogenous in cells; host or cells: A2058 human melanoma cells
Kind of test: Raf cellular assay (phospho-Mek1/2 ELISA in A2058 cells). The test is classed as cell-based. Particulars: human melanoma A2058 cells (b-Raf mutation), Mek1/2 Ser217/221 phosphorylation, 1 hour incubation, read-out: pMEK IC50. A digest of the protocol:
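A2058 melanoma cells (B-Raf mutant), seeded overnight in 10% FBS DMEM, were exposed to compounds (11-point 1:3 series, duplicate) for 1 h at 37 °C. Lysates were captured on anti-Mek1-coated plates and Mek1/2 Ser217/221 phosphorylation was read by anti-phospho-Mek1/2 ELISA, HRP/TMB, 450 nm.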
On the technique in general: An ELISA detects its analyte on a solid surface through an enzyme-linked reagent.

Like-named read-outs stand apart in the source and are kept apart here. Bounds are passed on as bounds.

In general, Ki refers to the equilibrium dissociation constant of an inhibitor or competing ligand from its target. Higher therefore signals weaker binding. A word on the IC50: it is the midpoint of a concentration-inhibition curve.

T1 sequence (P15056 whole entry): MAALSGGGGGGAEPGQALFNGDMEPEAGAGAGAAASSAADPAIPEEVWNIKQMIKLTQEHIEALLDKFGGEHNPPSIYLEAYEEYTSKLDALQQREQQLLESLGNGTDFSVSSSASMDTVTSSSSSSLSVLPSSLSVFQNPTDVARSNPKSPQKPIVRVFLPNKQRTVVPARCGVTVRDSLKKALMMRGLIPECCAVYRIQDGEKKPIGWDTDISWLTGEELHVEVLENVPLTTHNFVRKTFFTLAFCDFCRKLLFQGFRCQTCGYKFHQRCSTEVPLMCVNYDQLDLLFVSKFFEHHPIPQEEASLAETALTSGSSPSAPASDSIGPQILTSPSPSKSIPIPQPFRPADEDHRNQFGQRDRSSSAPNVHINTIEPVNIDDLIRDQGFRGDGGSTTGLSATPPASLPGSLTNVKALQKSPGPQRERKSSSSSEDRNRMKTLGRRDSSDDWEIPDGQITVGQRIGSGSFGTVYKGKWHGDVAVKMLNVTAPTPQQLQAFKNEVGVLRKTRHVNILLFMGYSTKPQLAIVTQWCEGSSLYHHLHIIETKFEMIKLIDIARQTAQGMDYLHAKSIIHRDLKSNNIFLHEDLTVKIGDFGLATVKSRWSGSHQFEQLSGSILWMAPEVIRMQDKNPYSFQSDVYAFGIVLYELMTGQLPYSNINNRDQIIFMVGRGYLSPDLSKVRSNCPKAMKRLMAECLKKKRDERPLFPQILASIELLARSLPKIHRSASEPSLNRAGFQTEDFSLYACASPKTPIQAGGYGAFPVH
T2 sequence (P15056 whole entry V600E): as the sequence (P15056 whole entry) above, with V600E counted along it

For `CNc1ncc(-c2nn(C(C)C)cc2-c2ccnc(NC[C@H](C)O)n2)cc1C` [Example B-4, (2S)-1-(4-(1-isopropyl-3-(5-methyl-6-(methylamino)pyridin-3-yl)-1H-pyrazol-4-yl)pyrimidin-2-ylamino)propan-2-ol], in test [1], the inhibition at 1 µM came to 74% and the Ki came to 272 nM. In addition, the IC50 in test [2] (Table 2) was determined as 3370 nM.

In the case of `Cc1[nH]c2ncc(-c3nn(C(C)C)cc3-c3ccnc(NC[C@H](C)O)n3)cc2c1Cl` [Example E-3, (2S)-1-(4-(3-(3-chloro-2-methyl-1H-pyrrolo[2,3-b]pyridin-5-yl)-1-isopropyl-1H-pyrazol-4-yl)pyrimidin-2-ylamino)propan-2-ol], the Ki in test [1] was 0.6 nM. Moreover, in test [2] (Table 2), the IC50 worked out at 165 nM.

Turning to `CC(C)n1cc(-c2ccnc(NCCF)n2)c(-c2cnc3[nH]ccc3c2)n1` [Example D-5, N-(2-fluoroethyl)-4-[1-isopropyl-3-(1H-pyrrolo[2,3-b]pyridin-5-yl)-1H-pyrazol-4-yl]pyrimidin-2-amine], in test [1], the inhibition at 1 µM turned out to be 100% and the inhibition constant Ki amounted to 0.5 nM. Moreover, the IC50 in test [2] (Table 2) turned out to be 182 nM.

In the case of `CNc1ccc(-c2nn(C(C)C)cc2-c2ccnc(NC[C@H](C)O)n2)cn1` [Example B-2, (2S)-1-(4-(1-isopropyl-3-(6-(methylamino)pyridin-3-yl)-1H-pyrazol-4-yl)pyrimidin-2-ylamino)propan-2-ol], in test [1], the inhibition at 1 µM was determined as 97% and the affinity corresponds to a Ki of 12 nM. The IC50 in test [2] (Table 2) is 8670 nM.

For `C[C@H](O)CNc1nccc(-c2cn(C)nc2-c2cnc3[nH]ccc3c2)n1` [Example B-13, (2S)-1-(4-(1-methyl-3-(1H-pyrrolo[2,3-b]pyridin-5-yl)-1H-pyrazol-4-yl)pyrimidin-2-ylamino)propan-2-ol], the affinity in test [1], expressed as Ki, was 22.7 nM. In addition, the IC50 in test [2] (Table 2) was determined as 6270 nM.

The compound `CC(C)n1cc(-c2ccnc(NC[C@H](C)O)n2)c(-c2cnc3[nH]cc(Cl)c3c2)n1` [Example B-11, (2S)-1-(4-(3-(3-chloro-1H-pyrrolo[2,3-b]pyridin-5-yl)-1-isopropyl-1H-pyrazol-4-yl)pyrimidin-2-ylamino)propan-2-ol] registered a Ki in test [1] of under 0.1 nM. Moreover, the IC50 in test [2] (Table 2) was determined as 7 nM.

As to `CCN1CC(CNc2nccc(-c3cn(C(C)C)nc3-c3cnc4[nH]ccc4c3)n2)CC1=O` [Example D-14, 1-ethyl-4-[({4-[1-isopropyl-3-(1H-pyrrolo[2,3-b]pyridin-5-yl)-1H-pyrazol-4-yl]pyrimidin-2-yl}amino)methyl]-pyrrolidin-2-one], in test [1], the inhibition at 1 µM was determined as 99% and the affinity, expressed as Ki, was 4.8 nM. Also, the IC50 in test [2] (Table 2) was 3140 nM.

With `CC(C)n1cc(-c2ccnc(NCc3ccccn3)n2)c(-c2cnc3[nH]ccc3c2)n1` [Example D-3, 4-(1-isopropyl-3-(1H-pyrrolo[2,3-b]pyridin-5-yl)-1H-pyrazol-4-yl)-N-(pyridin-2-ylmethyl)pyrimidin-2-amine], in test [1], the inhibition at 1 µM was 93% and the Ki worked out at 8.3 nM. The IC50 in test [2] (Table 2) was found to be 1810 nM.

As for `CC(C)n1cc(-c2ccnc(NCCc3cn[nH]c3)n2)c(-c2cnc3[nH]ccc3c2)n1` [Example D-7, 4-[1-isopropyl-3-(1H-pyrrolo[2,3-b]pyridin-5-yl)-1H-pyrazol-4-yl]-N-[2-(1H-pyrazol-4-yl)ethyl]pyrimidin-2-amine], in test [1], the inhibition at 1 µM came out at 99% and the Ki turned out to be 0.5 nM. For the same compound, in test [2] (Table 2), the IC50 was determined as 386 nM.

`C[C@H](O)CNc1nccc(-c2cn(CC(F)F)nc2-c2cnc3[nH]cc(Cl)c3c2)n1` [Example E-2, (2S)-1-(4-(3-(3-chloro-1H-pyrrolo[2,3-b]pyridin-5-yl)-1-(2,2-difluoroethyl)-1H-pyrazol-4-yl)pyrimidin-2-ylamino)propan-2-ol]: in test [1], the inhibition at 1 µM was 100% and the Ki was under 0.1 nM. Further, the IC50 in test [2] (Table 2) came out at 15 nM.

For `COCCNc1nccc(-c2cn(C(C)C)nc2-c2cnc3[nH]ccc3c2)n1` [Example D-13, 4-[1-isopropyl-3-(1H-pyrrolo[2,3-b]pyridin-5-yl)-1H-pyrazol-4-yl]-N-(2-methoxyethyl)-pyrimidin-2-amine], in test [1], the inhibition at 1 µM turned out to be 100% and the Ki turned out to be 0.7 nM. The IC50 in test [2] (Table 2) was found to be 2990 nM.

`CC(C)n1cc(-c2ccnc(NCC3CCOC3)n2)c(-c2cnc3[nH]ccc3c2)n1` [Example D-12, 4-[1-isopropyl-3-(1H-pyrrolo[2,3-b]pyridin-5-yl)-1H-pyrazol-4-yl]-N-(tetrahydrofuran-3-ylmethyl)pyrimidin-2-amine]: in test [1], the inhibition at 1 µM came to 99% and the Ki was 1.4 nM. Moreover, the IC50 in test [2] (Table 2) came to 1520 nM.

Consider `C[C@H](O)CNc1nccc(-c2cn(CC(F)F)nc2-c2cnc3c(c2)CCN3)n1` [Example B-102, (2S)-1-({4-[1-(2,2-difluoroethyl)-3-(2,3-dihydro-1H-pyrrolo[2,3-b]pyridin-5-yl)-1H-pyrazol-4-yl]pyrimidin-2-yl}amino)propan-2-ol], for which, in test [2] (Table 3), the IC50 amounted to 509 nM.

For the compound `CC(C)n1cc(-c2ccnc(NC[C@H](C)O)n2)c(-c2cnc(N)c(OC(F)F)c2)n1` [Example B-39, (2S)-1-[(4-{3-[6-amino-5-(difluoromethoxy)-pyridin-3-yl]-1-isopropyl-1H-pyrazol-4-yl}pyrimidin-2-yl)amino]propan-2-ol], the IC50 in test [2] (Table 3) was 87.8 nM.

As for `Cc1c[nH]c2ncc(-c3nn(C(F)F)cc3-c3ccnc(NCCC#N)n3)cc12` [Example B-44, 3-({4-[1-(difluoromethyl)-3-(3-methyl-1H-pyrrolo[2,3-b]pyridin-5-yl)-1H-pyrazol-4-yl]pyrimidin-2-yl}amino)-propanenitrile], the IC50 in test [2] (Table 3) turned out to be 1.37 nM.

Regarding `Cc1cc(-c2nn(C(C)(C)CO)cc2-c2ccnc(NCCC#N)n2)cnc1N` [Example B-47, 3-({4-[3-(6-amino-5-methylpyridin-3-yl)-1-(2-hydroxy-1,1-dimethylethyl)-1H-pyrazol-4-yl]pyrimidin-2-yl}amino)-propanenitrile], the IC50 in test [2] (Table 3) was found to be 86.2 nM.

In the case of `COc1cc(-c2n[nH]cc2-c2ccnc(N)n2)cnc1N` [Example C-2, 4-[3-(6-amino-5-methoxypyridin-3-yl)-1H-pyrazol-4-yl]pyrimidin-2-amine], the IC50 in test [2] (Table 3) was 1310 nM.

As for `N#CCCNc1nccc(-c2cn(CC(F)F)nc2-c2cnc3c(c2)CCN3)n1` [Example B-88, 3-(4-(1-(2,2-difluoroethyl)-3-(2,3-dihydro-1H-pyrrolo[2,3-b]pyridin-5-yl)-1H-pyrazol-4-yl)pyrimidin-2-ylamino)propanenitrile], in test [2] (Table 3), the IC50 stood at 6.93 nM.

`CC(C)n1cc(-c2ccnc(NC[C@H](C)O)n2)c(-c2cnc(N)c(O)c2)n1` [Example B-45, 2-amino-5-[4-(2-{[(2S)-2-hydroxypropyl]-amino}pyrimidin-4-yl)-1-isopropyl-1H-pyrazol-3-yl]pyridin-3-ol]: the IC50 in test [2] (Table 3) turned out to be 319 nM.

Take `CC(=O)c1cc(-c2nn(CC(F)F)cc2-c2ccnc(NCCC#N)n2)cnc1N` [Example B-78, 3-(4-(3-(5-acetyl-6-aminopyridin-3-yl)-1-(2,2-difluoroethyl)-1H-pyrazol-4-yl)pyrimidin-2-ylamino)propanenitrile]: the IC50 in test [2] (Table 3) was determined as 8.8 nM.

As to `CC(C)(CO)n1cc(-c2ccnc(NCCC#N)n2)c(-c2cnc3[nH]cc(Cl)c3c2)n1` [Example E-5, 3-({4-[3-(3-chloro-1H-pyrrolo[2,3-b]pyridin-5-yl)-1-(2-hydroxy-1,1-dimethylethyl)-1H-pyrazol-4-yl]pyrimidin-2-yl}amino)-propanenitrile], the IC50 in test [2] (Table 3) turned out to be 0.836 nM.

With `Cc1cc(-c2nn(CC(F)F)cc2-c2ccnc(NC[C@H](C)O)n2)cnc1N` [Example B-18, (2S)-1-({4-[3-(6-amino-5-methylpyridin-3-yl)-1-(2,2-difluoroethyl)-1H-pyrazol-4-yl]pyrimidin-2-yl}amino)propan-2-ol], the IC50 in test [2] (Table 3) is 580 nM.

These data come from US7772246B2 (Pfizer Inc., priority 2007, dated 2010).
